Type in all cases: cell-based
The subject of assay [1] is human coronary smooth muscle cells (HCASMCs). The assay is described as follows: Low-oxygen induced apoptosis, active caspase-3/-7, smooth muscle cells. As to the method:
The effect of FOL-026 peptide treatment on smooth muscle cell proliferation (FIG. 25a) and apoptosis (FIG. 25c) induced with low-oxygen condition was evaluated with the uptake of BrdU (n=10 per group) and active caspase-3/-7 (n=6-8 per group) separately. H2O2 measurement (FIG. 25b) of smooth muscle cells pre-incubated with FOL-26 peptides after 50 ug/ml oxidized Low-density Lipoprotein (oxLDL) stimulation for 2 hours (n=6-7 per group). Representative images of scratch wound assay in vitro are shown (FIG. 26a) and the ability of wound healing (FIG. 26b) in human coronary smooth muscle cells (HCASMCs) treated with FOL-026 peptides was measured by image J software (n=10 per group). Scale bar=150 um. Data are presented as means±SEM and acquired from 3 to 4 independent replicate tests. *P<0.05, **P<0.01, ***P<0.001, ****P<0.0001 by one-way ANOVA and Dunnett's post-hoc test.

Assay [2] relates to Human umbilical cord endothelial cells (HUVECs). The assay is described as follows: Gene expression by PCR in endothelial cells.
The subject of assay [3] is human umbilical vascular endothelial cells (HUVECs). The assay is described as follows: ROS level (H2O2 measurement) after oxLDL, HUVECs. Conditions: HUVECs pre-incubated with peptide; 50 ug/ml oxLDL for 2 hours. On the procedure: (§1) The impact of FOL-026 peptide on human umbilical vascular endothelial cells (HUVECs) proliferation (FIG. 18a) and apoptosis (FIG. 18c) induced with low-oxygen condition was determined by BrdU uptake (n=8-9 per group) and active caspase-3/-7 (n=7-10 per group) separately. The ROS level (FIG. 18b) activated by 50 ug/ml oxidized Low-density Lipoprotein (oxLDL) for 2 hours in cells pre-incubated with FOL-026 peptides was assessed using H2O2 measurement (n=4-8 per group). Representative pictures of endothelial migration into an in vitro scratch injury were shown (FIG. 19a) and the wound closure rate (FIG. 19b) in HUVECs stimulated with increasing concentration of FOL-026 peptide was quantified by image J software (n=8-9 per group). Scale bar=150 um. Data are presented as means±SEM and acquired from 3 to 4 independent replicate tests. *P<0.05, **P<0.01, ****P<0.0001 by one-way ANOVA and Dunnett's post-hoc test.

Assay [4] has the same test system. The assay is described as follows: Low-oxygen induced apoptosis, active caspase-3/-7, HUVECs. As to the method:
as §1
The efficiency of small interfering RNA transfection for 48 hours in HUVECs was confirmed by qRT-PCR (n=4) (FIG. 22a). […]

Assay [5] has as its system Human coronary artery smooth cells (HCASMCs). In words: Gene expression by PCR in arterial smooth muscle cells. On the procedure: Cells on 6-well plates were washed with cold DPBS (Gibco, USA) and homogenized in Trizol reagent (Invitrogen, CA, USA). Total RNA was extracted using PureLink RNA Mini Kit (Invitrogen, CA, USA), followed by nucleic acid quantification with NanoDrop 2000c (Thermo Fisher Scientific, USA). To determine mRNA expression of target genes, real-time qPCR was performed using by KAPA SYBR FAST One-Step qRT-PCR Master Mix Kit (KAPA Biosystems, USA) on LightCycler480 system (Roche, Mannheim, Germany). All primers were purchased from miScript Primer Assays (Qiagen, Valencia, CA) and GAPDH mRNA expression of each sample was used for normalization. Cells on 6-well plates were washed with cold DPBS and lysed with the mixture of lysis buffer and protease inhibitors on ice, then centrifuged at 15,000 g for 20 min at 4° C. Supernatant was performed to measure the protein concentration using BCA Protein Assay Kit (Thermo Fisher Scientific, USA). Protein sample was loaded onto SDS-PAGE gels and separated with electrophoresis, followed by transferred to PVDF membranes (Millipore, USA). Membranes were blocked with 5% nonfat milk. Primary antibodies (Abcam, UK) and secondary antibodies were performed to incubate with membranes at 4° C. overnight and at room temperature for 1 hour respectively.

VDTYDGGISVVYGLR [FOL-026]: the “smooth muscle cell apoptosis induced with low-oxygen condition (active caspase-3/-7)” value in assay [1] was “inhibits apoptosis”. The VEGFR-2 gene expression entry in assay [2] (10 nM) is “reduced”; in assay [2] (1000 nM) it was “induced”. The TNF-α gene expression entry is “reduced” in assay [2] (10 nM and 100 nM); “induced” in assay [5] (100 and 1000 nM). In addition, the IL-6 gene expression result is given as “no effect” in assay [2] (10 nM, 100 nM, 1000 nM tested); “induced” in assay [5] (100 and 1000 nM). The MMP3 gene expression result in assay [2] (10 nM, 100 nM, 1000 nM tested) was “no effect”; in assay [5] (100 and 1000 nM), “induced”. Besides, the VEGF-A gene expression result in assay [2] (10 nM, 100 nM, 1000 nM tested) is reported as “no effect”; in assay [5] (10, 100, and 1000 nM), “induced”. In addition, the c-Met gene expression result in assay [2] (10 nM, 100 nM, 1000 nM tested) is “reducing”. In addition, the NRP-1 gene expression result in assay [2] (100 nM and 1000 nM) was “inducing”; in assay [2] (lowest dose (10 nM)), “reducing”; in assay [5] (10, 100, and 1000 nM), “reduced”. The MMP2 gene expression entry in assay [2] (200 nM and 1000 nM) is given as “induced”; in assay [5] (10, 100, and 1000 nM) it was “induced”. Also, the “ROS levels induced by oxLDL (H2O2 measurement)” value in assay [3] is “reduce the amount of ROS levels”. Moreover, the “cell apoptosis at 0.1% oxygen after NRP-1 knock-down (active caspase-3/-7)” value in assay [4] (HUVECs transfected with siRNA-NC or siNRP-1) is given as “blocks the effect”. For the same sequence, in assay [4] (HUVECs, low-oxygen condition), the “low oxygen induced apoptosis (active caspase-3/-7)” value is recorded as “alleviates the effect of low oxygen induced apoptosis”. Besides, the c-MET gene expression result in assay [5] (10 nM and 1000 nM) is recorded as “reduced”.

For the origin of these results see patent publication US20250326799A1, “AGENTS INDUCING VASCULARISATION” (Coegin Pharma AB, priority 2022, published 2025).
